These results are taken from PubChem BioAssay (NCI).

Among the test systems are HCT-116 colon; HT29 colon; IGROV1 ovarian; OVCAR-8 ovarian; RPMI-8226 leukemia; SK-MEL-28 melanoma; SN12C renal; SNB-19 CNS; TK-10 renal; UACC-62 melanoma.
Assay in all cases: NCI tumour cell line growth inhibition, 48 h

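The compound was tested at five concentrations on cells cultured in 96-well plates, with a 48-hour exposure period. The concentration for 50% growth inhibition is given as GI50. TGI denotes the concentration required for complete inhibition of growth.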 A value given as a limit tells only on which side of the number the result lay.

Turning to `Fc1ccc(Nc2nccc(-c3c(-c4ccc(C(F)(F)F)cc4)nn4ncccc34)n2)cc1F`, the GI50 in the test on HCT-116 colon, in the test with HT29 colon, in the test with IGROV1 ovarian, with OVCAR-8 ovarian, in the test on RPMI-8226 leukemia and in the test on SK-MEL-28 melanoma was above 25 µM throughout. Moreover, the GI50 in the test with SN12C renal, in the test with SNB-19 CNS, in the test with TK-10 renal and in the test on UACC-62 melanoma was above 25 µM in each case. Moreover, the TGI with HCT-116 colon, in the test on HT29 colon, in the test on IGROV1 ovarian, with OVCAR-8 ovarian, in the test on RPMI-8226 leukemia and in the test on SK-MEL-28 melanoma was above 25 µM throughout. Besides, the TGI with SN12C renal, in the test with SNB-19 CNS, in the test with TK-10 renal and in the test on UACC-62 melanoma was above 25 µM throughout.

With `CCN1C(=O)N(CC)C2C1NN=c1s/c(=C3\C(=O)N(C)c4ccccc43)c(=O)n12` (stereo not given), the GI50 with HCT-116 colon was 1.1 µM; in the test on HT29 colon, 0.562 µM; with IGROV1 ovarian, 0.891 µM; in the test with OVCAR-8 ovarian, 2.82 µM; in the test on RPMI-8226 leukemia it was 0.89 µM; in the test on SK-MEL-28 melanoma, 3.09 µM. For the same compound, the GI50 in the test with SN12C renal was 2.89 µM; with SNB-19 CNS, 2.89 µM; with TK-10 renal it was 11.2 µM; with UACC-62 melanoma it was 0.431 µM. Moreover, the TGI was above 43.6 µM with HCT-116 colon; above 100 µM with HT29 colon; 43.7 µM in the test on IGROV1 ovarian; above 100 µM with OVCAR-8 ovarian; 12.6 µM in the test with RPMI-8226 leukemia; above 100 µM in the test on SK-MEL-28 melanoma. Besides, the TGI in the test with SN12C renal was above 100 µM; in the test with SNB-19 CNS, above 100 µM; in the test with TK-10 renal it was above 74.3 µM; with UACC-62 melanoma, above 100 µM.

In the case of `COc1ccccc1-c1c(C)nn2c(NCc3ccccn3)cc(C)nc12`, the GI50 is 3.75 µM in the test on HCT-116 colon; 7.31 µM with HT29 colon; above 37.5 µM in the test with IGROV1 ovarian; 23.9 µM in the test on OVCAR-8 ovarian; 13.6 µM with RPMI-8226 leukemia; above 36.9 µM with SK-MEL-28 melanoma. The GI50 in the test with SN12C renal was 29.9 µM; in the test with SNB-19 CNS it was above 50 µM; in the test with TK-10 renal it was above 25.6 µM; with UACC-62 melanoma, 16.9 µM. For the same compound, the TGI in the test with HCT-116 colon, with HT29 colon, in the test on IGROV1 ovarian, with OVCAR-8 ovarian, with RPMI-8226 leukemia and with SK-MEL-28 melanoma was above 50 µM throughout. Besides, the TGI in the test with SN12C renal, with SNB-19 CNS, with TK-10 renal and with UACC-62 melanoma was above 50 µM each time.

For the compound `C=CCc1ccc(O)c(-c2cc(C3Oc4c(-c5cc(CC=C)ccc5O)cc(O)cc4[C@@H]3CO)ccc2O)c1` (stereo not given in full), the TGI is 43.3 µM in the test on HCT-116 colon; 79.3 µM with HT29 colon; 51.6 µM with IGROV1 ovarian; above 100 µM with OVCAR-8 ovarian; 65.6 µM with RPMI-8226 leukemia; 76.8 µM with SK-MEL-28 melanoma. Moreover, the TGI with SN12C renal is above 100 µM; in the test with SNB-19 CNS it was 78.7 µM; in the test with TK-10 renal, above 100 µM; in the test on UACC-62 melanoma it was 89.1 µM.

Regarding `COC(=O)C(Cc1nc2ccc(Cl)cc2[nH]c1=O)C(=O)C(=O)Nc1ccccc1[N+](=O)[O-]` (stereo not given), the TGI in the test on HCT-116 colon, with HT29 colon, with IGROV1 ovarian, in the test on OVCAR-8 ovarian, with RPMI-8226 leukemia and with SK-MEL-28 melanoma was above 100 µM throughout. Moreover, the TGI in the test on SN12C renal, with SNB-19 CNS, in the test with TK-10 renal and with UACC-62 melanoma was above 100 µM each time.

For `CC(C)=CC(=O)CC(=O)C(=O)Nc1ccc(Cl)c(Cl)c1`, the TGI in the test with HCT-116 colon, with HT29 colon, in the test with IGROV1 ovarian, in the test on OVCAR-8 ovarian, with RPMI-8226 leukemia and in the test on SK-MEL-28 melanoma was above 100 µM each time. Also, the TGI in the test on SN12C renal, in the test with SNB-19 CNS, with TK-10 renal and in the test on UACC-62 melanoma was above 100 µM throughout.

For the compound `C=C[C@]1(C)C=C2C(=O)[C@@]3(O)OC[C@@]4(CCCC(C)(C)C43O)C2(O)C(O)C1` (stereo not given in full), the GI50 with HCT-116 colon is 1.18 µM; with HT29 colon it was 1.46 µM; with IGROV1 ovarian it was 1.55 µM; in the test on OVCAR-8 ovarian, 4.03 µM; with RPMI-8226 leukemia, 21 µM; with SK-MEL-28 melanoma, 4.26 µM. Besides, the GI50 in the test on SN12C renal is 8.4 µM; in the test with SNB-19 CNS, 23.3 µM; with TK-10 renal, 1.56 µM; in the test with UACC-62 melanoma, 7.77 µM. For the same compound, the TGI in the test on HCT-116 colon was 2.46 µM; in the test on HT29 colon, above 21.5 µM; in the test with IGROV1 ovarian it was 6.36 µM; with OVCAR-8 ovarian, 15 µM; in the test with RPMI-8226 leukemia it was above 100 µM; in the test on SK-MEL-28 melanoma it was 15.6 µM. Also, the TGI with SN12C renal is 23.2 µM; in the test with SNB-19 CNS it was above 69 µM; in the test on TK-10 renal, 3.03 µM; in the test with UACC-62 melanoma it was 21.5 µM.

In the case of `COc1ccc2c(c1)C(=O)c1c-2n(CCCN2CCOCC2)c(=O)c2ccccc12`, the GI50 with HCT-116 colon was 1.66 µM; in the test with HT29 colon it was 2.19 µM; with IGROV1 ovarian, 1.87 µM; with OVCAR-8 ovarian, 3.45 µM; in the test with RPMI-8226 leukemia it was 1.35 µM; in the test on SK-MEL-28 melanoma, 11.2 µM. Besides, the GI50 with SN12C renal is 4.25 µM; with SNB-19 CNS, 2.65 µM; in the test on TK-10 renal, 4.62 µM; in the test on UACC-62 melanoma, 1.76 µM. Besides, the TGI in the test on HCT-116 colon was 4.54 µM; in the test on HT29 colon, above 45 µM; in the test with IGROV1 ovarian, above 100 µM; with OVCAR-8 ovarian it was above 100 µM; in the test on RPMI-8226 leukemia, 5.59 µM; in the test on SK-MEL-28 melanoma, above 100 µM. Also, the TGI in the test on SN12C renal is above 100 µM; in the test on SNB-19 CNS, 30.9 µM; in the test on TK-10 renal, 57.2 µM; in the test on UACC-62 melanoma, 5.87 µM.

For `CC(=O)Oc1ccccc1C(=O)C1c2cccc(O)c2C(=O)c2c(O)cccc21`, the TGI in the test on HCT-116 colon worked out at 3.41 µM; in the test with HT29 colon, 6.59 µM; in the test on IGROV1 ovarian, 2.85 µM; with OVCAR-8 ovarian, 4.34 µM; with RPMI-8226 leukemia, 2.48 µM; with SK-MEL-28 melanoma it was 7.14 µM. For the same compound, the TGI with SN12C renal came to 12.1 µM; with SNB-19 CNS it was 24.3 µM; in the test on TK-10 renal, 15.4 µM; in the test with UACC-62 melanoma, 2.23 µM.
